Data published in PubChem BioAssay (NCI).
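Abbreviation: GI50, concentration required for 50% inhibition of growth. Definition used: TGI = concentration required for complete inhibition of growth.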

Experiments:
Experiment in all cases: growth of human tumour cells (NCI), 384-well format
HOP-62 NSCLC = tested on: HOP-62 NSCLC
MDA-MB-435 melanoma = tested on: MDA-MB-435 melanoma
TK-10 renal = tested on: TK-10 renal
MDA-MB-468 breast = tested on: MDA-MB-468 breast
SF-295 CNS = tested on: SF-295 CNS
RPMI-8226 leukemia = tested on: RPMI-8226 leukemia
SW-620 colon = tested on: SW-620 colon
NCI/ADR-RES ovarian = tested on: NCI/ADR-RES ovarian
NCI-H460 NSCLC = tested on: NCI-H460 NSCLC
CCRF-CEM leukemia = tested on: CCRF-CEM leukemia
MALME-3M melanoma = tested on: MALME-3M melanoma
IGROV1 ovarian = tested on: IGROV1 ovarian
UACC-62 melanoma = tested on: UACC-62 melanoma
UACC-257 melanoma = tested on: UACC-257 melanoma
HOP-92 NSCLC = tested on: HOP-92 NSCLC
LOX IMVI melanoma = tested on: LOX IMVI melanoma
OVCAR-4 ovarian = tested on: OVCAR-4 ovarian
MCF7 breast = tested on: MCF7 breast
SN12C renal = tested on: SN12C renal
A498 renal = tested on: A498 renal
SF-268 CNS = tested on: SF-268 CNS
HCT-15 colon = tested on: HCT-15 colon
NCI-H522 lung = tested on: NCI-H522 lung
OVCAR-3 ovarian = tested on: OVCAR-3 ovarian
HL-60(TB) leukemia = tested on: HL-60(TB) leukemia
OVCAR-8 ovarian = tested on: OVCAR-8 ovarian
K-562 leukemia = tested on: K-562 leukemia
SK-OV-3 ovarian = tested on: SK-OV-3 ovarian
NCI-H226 lung = tested on: NCI-H226 lung
HT29 colon = tested on: HT29 colon
OVCAR-5 ovarian = tested on: OVCAR-5 ovarian
ACHN renal = tested on: ACHN renal
EKVX NSCLC = tested on: EKVX NSCLC
KM12 colon = tested on: KM12 colon
786-0 renal = tested on: 786-0 renal
BT-549 breast = tested on: BT-549 breast
SNB-75 CNS = tested on: SNB-75 CNS
RXF 393 renal = tested on: RXF 393 renal
MOLT-4 leukemia = tested on: MOLT-4 leukemia
NCI-H322M lung = tested on: NCI-H322M lung
MDA-MB-231 breast = tested on: MDA-MB-231 breast
SK-MEL-28 melanoma = tested on: SK-MEL-28 melanoma
SK-MEL-5 melanoma = tested on: SK-MEL-5 melanoma
DU-145 prostate = tested on: DU-145 prostate
NCI-H23 lung = tested on: NCI-H23 lung
COLO 205 colon = tested on: COLO 205 colon
A549 NSCLC = tested on: A549 NSCLC
HCC-2998 colon = tested on: HCC-2998 colon
HS 578T breast = tested on: HS 578T breast
HCT-116 colon = tested on: HCT-116 colon
SNB-19 CNS = tested on: SNB-19 CNS
CAKI-1 renal = tested on: CAKI-1 renal
SF-539 CNS = tested on: SF-539 CNS
UO-31 renal = tested on: UO-31 renal
PC-3 prostate = tested on: PC-3 prostate
T-47D breast = tested on: T-47D breast
M14 melanoma = tested on: M14 melanoma
U251 glioblastoma = tested on: U251 glioblastoma
SK-MEL-2 melanoma = tested on: SK-MEL-2 melanoma

Compound: NC(=O)c1cccc2c(N[C@H](CN3CCC3)c3ccc(Cl)c(C(F)(F)F)c3)ncnc12
- GI50 (HOP-62 NSCLC): 3.32 µM
- TGI (HOP-62 NSCLC): 12 µM
- GI50 (MDA-MB-435 melanoma): 1320 nM
- TGI (MDA-MB-435 melanoma): 5.51 µM
- GI50 (TK-10 renal): 1250 nM
- TGI (TK-10 renal): 3.18 µM
- GI50 (MDA-MB-468 breast): 256 nM
- TGI (MDA-MB-468 breast): 1250 nM
- GI50 (SF-295 CNS): 1020 nM
- TGI (SF-295 CNS): 3.22 µM
- GI50 (RPMI-8226 leukemia): 1200 nM
- TGI (RPMI-8226 leukemia): 2450 nM
- GI50 (SW-620 colon): 1860 nM
- TGI (SW-620 colon): 7.73 µM
- GI50 (NCI/ADR-RES ovarian): 2790 nM
- TGI (NCI/ADR-RES ovarian): 10.3 µM
- GI50 (NCI-H460 NSCLC): 366 nM
- TGI (NCI-H460 NSCLC): 2400 nM
- GI50 (CCRF-CEM leukemia): 410 nM
- TGI (CCRF-CEM leukemia): 1750 nM
- GI50 (MALME-3M melanoma): 457 nM
- TGI (MALME-3M melanoma): 1710 nM
- GI50 (IGROV1 ovarian): 247 nM
- TGI (IGROV1 ovarian): 1880 nM
- GI50 (UACC-62 melanoma): 980 nM
- TGI (UACC-62 melanoma): 2210 nM
- GI50 (UACC-257 melanoma): 1020 nM
- TGI (UACC-257 melanoma): 2190 nM
- GI50 (HOP-92 NSCLC): 1320 nM
- TGI (HOP-92 NSCLC): 3.35 µM
- GI50 (LOX IMVI melanoma): 2180 nM
- TGI (LOX IMVI melanoma): 7 µM
- GI50 (OVCAR-4 ovarian): 3.02 µM
- TGI (OVCAR-4 ovarian): 12 µM
- GI50 (MCF7 breast): 362 nM
- TGI (MCF7 breast): 1860 nM
- GI50 (SN12C renal): 2100 nM
- TGI (SN12C renal): 12.6 µM
- GI50 (A498 renal): 138 nM
- TGI (A498 renal): 1520 nM
- GI50 (SF-268 CNS): 1480 nM
- TGI (SF-268 CNS): 4.2 µM
- GI50 (HCT-15 colon): 1190 nM
- TGI (HCT-15 colon): 8.43 µM
- GI50 (NCI-H522 lung): 1190 nM
- TGI (NCI-H522 lung): 5.7 µM
- GI50 (OVCAR-3 ovarian): 2720 nM
- TGI (OVCAR-3 ovarian): 11.2 µM
- GI50 (HL-60(TB) leukemia): 1560 nM
- TGI (HL-60(TB) leukemia): 2910 nM
- GI50 (OVCAR-8 ovarian): 2560 nM
- TGI (OVCAR-8 ovarian): 11.2 µM
- GI50 (K-562 leukemia): 1640 nM
- TGI (K-562 leukemia): 3.2 µM
- GI50 (SK-OV-3 ovarian): 430 nM
- TGI (SK-OV-3 ovarian): 2910 nM
- GI50 (NCI-H226 lung): 2350 nM
- TGI (NCI-H226 lung): 8.74 µM
- GI50 (HT29 colon): 1400 nM
- TGI (HT29 colon): 2980 nM
- GI50 (OVCAR-5 ovarian): 2790 nM
- TGI (OVCAR-5 ovarian): 11.2 µM
- GI50 (ACHN renal): 1950 nM
- TGI (ACHN renal): 12.2 µM
- GI50 (EKVX NSCLC): 1150 nM
- TGI (EKVX NSCLC): 5.01 µM
- GI50 (KM12 colon): 920 nM
- TGI (KM12 colon): 6.88 µM
- GI50 ([…]-0 renal): 482 nM
- TGI (786-0 renal): 1940 nM
- GI50 (BT-549 breast): 316 nM
- TGI (BT-549 breast): 1520 nM
- GI50 (SNB-75 CNS): 258 nM
- TGI (SNB-75 CNS): 1570 nM
- GI50 (RXF 393 renal): 231 nM
- TGI (RXF 393 renal): 1340 nM
- GI50 (MOLT-4 leukemia): 88.2 nM
- TGI (MOLT-4 leukemia): 718 nM
- GI50 (NCI-H322M lung): 3.1 µM
- TGI (NCI-H322M lung): 14.4 µM
- GI50 (MDA-MB-231 breast): 2720 nM
- TGI (MDA-MB-231 breast): 13.7 µM
- GI50 (SK-MEL-28 melanoma): 1260 nM
- TGI (SK-MEL-28 melanoma): 2690 nM
- GI50 (SK-MEL-5 melanoma): 1380 nM
- TGI (SK-MEL-5 melanoma): 2690 nM
- GI50 (DU-145 prostate): 2630 nM
- TGI (DU-145 prostate): 13.8 µM
- GI50 (NCI-H23 lung): 1730 nM
- TGI (NCI-H23 lung): 6.24 µM
- GI50 (COLO 205 colon): 951 nM
- TGI (COLO 205 colon): 2160 nM
- GI50 (A549 NSCLC): 1510 nM
- TGI (A549 NSCLC): 6.39 µM
- GI50 (HCC-2998 colon): 1040 nM
- TGI (HCC-2998 colon): 2230 nM
- GI50 (HS 578T breast): 750 nM
- TGI (HS 578T breast): 2350 nM
- GI50 (HCT-116 colon): 1800 nM
- TGI (HCT-116 colon): 5.39 µM
- GI50 (SNB-19 CNS): 1730 nM
- TGI (SNB-19 CNS): 5.2 µM
- GI50 (CAKI-1 renal): 1290 nM
- TGI (CAKI-1 renal): 3.65 µM
- GI50 (SF-539 CNS): 195 nM
- TGI (SF-539 CNS): 1630 nM
- GI50 (UO-31 renal): 1580 nM
- TGI (UO-31 renal): 9.03 µM
- GI50 (PC-3 prostate): 345 nM
- TGI (PC-3 prostate): 3.85 µM
- GI50 (T-47D breast): 199 nM
- TGI (T-47D breast): 1390 nM
- GI50 (M14 melanoma): 1210 nM
- TGI (M14 melanoma): 2480 nM
- GI50 (U251 glioblastoma): 1890 nM
- TGI (U251 glioblastoma): 10.4 µM
- GI50 (SK-MEL-2 melanoma): 1310 nM
- TGI (SK-MEL-2 melanoma): 2660 nM
